From US10030047B2 (Hoffmann-La Roche Inc., priority 2015, dated 2018)
Values after ≈ are worked out from the molar mass of the structure shown.

Test system: A. baumannii strain ATCC19606
Assay: Minimum inhibitory concentration (MIC) determination, microbroth dilution (CLSI)
Assay type: cell-based
Details: Acinetobacter baumannii, ATCC19606, 20 h, read-out: ATCC19606 MIC
Procedure: The in vitro antimicrobial activity of the compounds was determined through microbroth minimum inhibitory concentration (MIC) methodology performed according to the Clinical and Laboratory Standard Institute guidelines (CLSI—M07-A9 Jan. 2012. Methods for Dilution Antimicrobial Susceptibility Tests for Bacteria That Grow Aerobically; Approved Standard—Ninth Edition, Clinical and Laboratory Standards Institute, Wayne/PA, US and the CLSI—M100-S24 Jan. 2014. Performance Standards for Antimicrobial Susceptibility Testing; Approved Standard—Fourth Informational Supplement, Clinical and Laboratory Standards Institute, Wayne/PA, US).
The compound stock solution was freshly prepared at 10× the required top concentration for the MIC determination, i.e. at 1280 mg/L, by reconstitution of the dry compound in 50:50 water:DMSO.
Polystyrene non-treated 96 wells microtiter plates were used for preparing panel containing compound serial twofold diluted at two times the final testing concentration (e.g. range from 64 to 0.06 μg/ml) in cation adjusted Mueller Hinton broth medium (CAMHB).
Inoculum was prepared by the “direct colony suspension method”. Colonies of A. baumannii ATCC19606 or clinical isolates were suspended in saline solution and adjusted to 0.5 McFarland, diluted 100 times in CAMHB broth and 50 μl added to each well (final concentration of cells ˜5×10^(5) CFU/ml and Final volume/well of 100 μl). Microtiter plates were sealed and incubated at 35±2° C.
MICs values were read after 20 hours of incubation and recorded as the lowest concentration of the antimicrobial that inhibits more or equal to 80% of growth of the organism as detected by the unaided eye and using a microtiter plate optical density reader (OD 600 nm).
Tables 2, 3, 4 and 5 provide the minimum inhibitory concentration (MIC) in microgram per milliliter of the compounds of present invention obtained against the A. baumannii strain ATCC19606 (Tables 2, 3, 4 and 5).

Row | Compound | MIC [µg/mL]
1 | CN1C(=O)[C@H](CCCN)NC(=O)[C@H](CCCN)NCc2ccccc2Sc2ccccc2CNC(=O)[C@@H]1Cc1c[nH]c2ccccc12 [Example 2, (12S,15S,18S)— 15,18-Bis-(3-amino-propyl)-12-(1H-indol-3-ylmethyl)-13-methyl-2-thia-10,13,16,19-tetraaza-tricyclo[19.4.0.0*3,8*]pentacosa-1(21),3,5,7,22,24-hexaene-11,14,17-trione] | 4 (≈ 6.1 µM)

Same assay, conditions: Acinetobacter baumannii; A. baumannii ATCC19606; CAMHB; read after 20 hours; >=80% growth inhibition; read-out: ATCC19606 MIC

Row | Compound | MIC [µg/mL]
2 | CN1C(=O)[C@H](CCCCN)NC(=O)[C@H](CCCN)NCc2ccccc2Sc2ccccc2CNC(=O)[C@@H]1Cc1c[nH]c2ccccc12 [Example 1, (12S,15S,18S)-15-(4-Amino-butyl)-18-(3-amino-propyl)-12-(1H-indol-3-ylmethyl)-13-methyl-2-thia-10,13,16,19-tetraaza-tricyclo[19.4.0.0*3,8*]pentacosa-1(21),3,5,7,22,24-hexaene-11,14,17-trione] | 4 (≈ 5.97 µM)
3 | CN1C(=O)[C@H](CCCCN)NC(=O)[C@H](C2CCNCC2)NCc2ccccc2Sc2ccccc2CNC(=O)[C@@H]1Cc1c[nH]c2ccccc12 [Example 3, (12S,15S,18S)-15-(4-Amino-butyl)-12-(1H-indol-3-ylmethyl)-13-methyl-18-piperidin-4-yl-2-thia-10,13,16,19-tetraaza-tricyclo[19.4.0.0*3,8*]pentacosa-1(21),3,5,7,22,24-hexaene-11,14,17-trione] | 16 (≈ 23 µM)
4 | CN1C(=O)[C@H](CCCCN)NC(=O)[C@H](CCCN)NCc2ccccc2Sc2ccc(Cl)cc2CNC(=O)[C@@H]1Cc1c[nH]c2ccccc12 [Example 4, (12S,15S,18S)-15-(4-Amino-butyl)-18-(3-amino-propyl)-6-chloro-12-(1H-indol-3-ylmethyl)-13-methyl-2-thia-10,13,16,19-tetraaza-tricyclo[19.4.0.0*3,8*]pentacosa-1(21),3,5,7,22,24-hexaene-11,14,17-trione] | 1 (≈ 1.42 µM)
5 | CN1C(=O)[C@H](CCCCN)NC(=O)[C@H](CNC(=N)N)NCc2ccccc2Sc2ccccc2CNC(=O)[C@@H]1Cc1c[nH]c2ccccc12 [Example 5, N-[(11S,14S,17S)-14-(4-Amino-butyl)-17-(1H-indol-3-ylmethyl)-16-methyl-12,15,18-trioxo-2-thia-10,13,16,19-tetraaza-tricyclo[19.4.0.0*3,8*]pentacosa-1(25),3(8),4,6,21,23-hexaen-11-ylmethyl]-guanidine] | 32 (≈ 46.8 µM)
6 | CN1C(=O)[C@H](CCCCN)NC(=O)[C@H](CCCN)NCc2ccccc2Sc2cc(Cl)ccc2CNC(=O)[C@@H]1Cc1c[nH]c2ccccc12 [Example 6, (12S,15S,18S)-15-(4-Amino-butyl)-18-(3-amino-propyl)-5-chloro-12-(1H-indol-3-ylmethyl)-13-methyl-2-thia-10,13,16,19-tetraaza-tricyclo[19.4.0.0*3,8*]pentacosa-1(21),3,5,7,22,24-hexaene-11,14,17-trione] | 2 (≈ 2.84 µM)
7 | COc1ccc2c(c1)CNC(=O)[C@H](Cc1c[nH]c3ccccc13)N(C)C(=O)[C@H](CCCCN)NC(=O)[C@H](CCCN)NCc1ccccc1S2 [Example 7, (12S,15S,18S)-15-(4-Amino-butyl)-18-(3-amino-propyl)-12-(1H-indol-3-ylmethyl)-6-methoxy-13-methyl-2-thia-10,13,16,19-tetraaza-tricyclo[19.4.0.0*3,8*]pentacosa-1(21),3,5,7,22,24-hexaene-11,14,17-trione] | 0.5 (≈ 0.714 µM)
8 | Cc1cccc2c1Sc1ccccc1CN[C@@H](CCCN)C(=O)N[C@@H](CCCCN)C(=O)N(C)[C@@H](Cc1c[nH]c3ccccc13)C(=O)NC2 [Example 8, (12S,15S,18S)-15-(4-Amino-butyl)-18-(3-amino-propyl)-12-(1H-indol-3-ylmethyl)-4,13-dimethyl-2-thia-10,13,16,19-tetraaza-tricyclo[19.4.0.0*3,8*]pentacosa-1(21),3,5,7,22,24-hexaene-11,14,17-trione] | 0.5 (≈ 0.731 µM)
9 | Cc1ccc2c(c1)Sc1ccccc1CN[C@@H](CCCN)C(=O)N[C@@H](CCCCN)C(=O)N(C)[C@@H](Cc1c[nH]c3ccccc13)C(=O)NC2 [Example 9, (12S,15S,18S)-15-(4-Amino-butyl)-18-(3-amino-propyl)-12-(1H-indol-3-ylmethyl)-5,13-dimethyl-2-thia-10,13,16,19-tetraaza-tricyclo[19.4.0.0*3,8*]pentacosa-1(21),3,5,7,22,24-hexaene-11,14,17-trione] | 16 (≈ 23.4 µM)

Next, values leading:

Row | MIC [µg/mL] | Compound
10 | 2 (≈ 2.92 µM) | Cc1ccc2c(c1)CNC(=O)[C@H](Cc1c[nH]c3ccccc13)N(C)C(=O)[C@H](CCCCN)NC(=O)[C@H](CCCN)NCc1ccccc1S2 [Example 10, (12S,15S,18S)-15-(4-Amino-butyl)-18-(3-amino-propyl)-12-(1H-indol-3-ylmethyl)-6,13-dimethyl-2-thia-10,13,16,19-tetraaza-tricyclo[19.4.0.0*3,8*]pentacosa-1(21),3,5,7,22,24-hexaene-11,14,17-trione]
11 | 0.5 (≈ 0.71 µM) | CN1C(=O)[C@H](CCCCN)NC(=O)[C@H](CCCN)NCc2ccccc2Sc2c(Cl)cccc2CNC(=O)[C@@H]1Cc1c[nH]c2ccccc12 [Example 11, (12S,15S,18S)-15-(4-Amino-butyl)-18-(3-amino-propyl)-4-chloro-12-(1H-indol-3-ylmethyl)-13-methyl-2-thia-10,13,16,19-tetraaza-tricyclo[19.4.0.0*3,8*]pentacosa-1(21),3,5,7,22,24-hexaene-11,14,17-trione]
12 | 0.5 (≈ 0.678 µM) | CN1C(=O)[C@H](CCCCN)NC(=O)[C@H](CCCN)NCc2ccccc2Sc2c(cccc2C(F)(F)F)CNC(=O)[C@@H]1Cc1c[nH]c2ccccc12 [Example 12, (12S,15S,18S)-15-(4-Amino-butyl)-18-(3-amino-propyl)-12-(1H-indol-3-ylmethyl)-13-methyl-4-trifluoromethyl-2-thia-10,13,16,19-tetraaza-tricyclo[19.4.0.0*3,8*]pentacosa-1(21),3,5,7,22,24-hexaene-11,14,17-trione]
13 | 2 (≈ 2.71 µM) | CN1C(=O)[C@H](CCCCN)NC(=O)[C@H](CCCN)NCc2ccccc2Sc2cc(C(F)(F)F)ccc2CNC(=O)[C@@H]1Cc1c[nH]c2ccccc12 [Example 13, (12S,15S,18S)-15-(4-Amino-butyl)-18-(3-amino-propyl)-12-(1H-indol-3-ylmethyl)-13-methyl-5-trifluoromethyl-2-thia-10,13,16,19-tetraaza-tricyclo[19.4.0.0*3,8*]pentacosa-1(21),3,5,7,22,24-hexaene-11,14,17-trione]
14 | 1 (≈ 1.36 µM) | CN1C(=O)[C@H](CCCCN)NC(=O)[C@H](CCCN)NCc2ccccc2Sc2ccc(C(F)(F)F)cc2CNC(=O)[C@@H]1Cc1c[nH]c2ccccc12 [Example 14, (12S,15S,18S)-15-(4-Amino-butyl)-18-(3-amino-propyl)-12-(1H-indol-3-ylmethyl)-13-methyl-6-trifluoromethyl-2-thia-10,13,16,19-tetraaza-tricyclo[19.4.0.0*3,8*]pentacosa-1(21),3,5,7,22,24-hexaene-11,14,17-trione]
15 | 32 (≈ 45.4 µM) | CN1C(=O)[C@H](CCCCN)NC(=O)[C@H](CCCN)NCc2ccccc2Sc2ccccc2CNC(=O)[C@@H]1Cc1c[nH]c2cc(Cl)ccc12 [Example 15, (12S,15S,18S)-15-(4-Amino-butyl)-18-(3-amino-propyl)-12-(6-chloro-1H-indol-3-ylmethyl)-13-methyl-2-thia-10,13,16,19-tetraaza-tricyclo[19.4.0.0*3,8*]pentacosa-1(21),3,5,7,22,24-hexaene-11,14,17-trione]
16 | 32 (≈ 44.5 µM) | CN1C(=O)[C@H](CCCCN)NC(=O)[C@H](CCCN)NCc2ccccc2Sc2ccccc2CNC(=O)[C@@H]1Cc1cn(C)c2cc(Cl)ccc12 [Example 16, (12S,15S,18S)-15-(4-Amino-butyl)-18-(3-amino-propyl)-12-(6-chloro-1-methyl-1H-indol-3-ylmethyl)-13-methyl-2-thia-10,13,16,19-tetraaza-tricyclo[19.4.0.0*3,8*]pentacosa-1(21),3,5,7,22,24-hexaene-11,14,17-trione]
17 | 32 (≈ 44.5 µM) | CN1C(=O)[C@H](CCCCN)NC(=O)[C@H](CCCN)NCc2ccccc2Sc2ccc(Cl)cc2CNC(=O)[C@@H]1Cc1cn(C)c2ccccc12 [Example 17, (12S,15S,18S)-15-(4-Amino-butyl)-18-(3-amino-propyl)-6-chloro-13-methyl-12-(1-methyl-1H-indol-3-ylmethyl)-2-thia-10,13,16,19-tetraaza-tricyclo[19.4.0.0*3,8*]pentacosa-1(21),3,5,7,22,24-hexaene-11,14,17-trione]
18 | 16 (≈ 21.7 µM) | CN1C(=O)[C@H](CCCCN)NC(=O)[C@H](CCCN)NCc2ccccc2Sc2ccc(Cl)cc2CNC(=O)[C@@H]1Cc1c[nH]c2cc(Cl)ccc12 [Example 18, (12S,15S,18S)-15-(4-Amino-butyl)-18-(3-amino-propyl)-6-chloro-12-(6-chloro-1H-indol-3-ylmethyl)-13-methyl-2-thia-10,13,16,19-tetraaza-tricyclo[19.4.0.0*3,8*]pentacosa-1(21),3,5,7,22,24-hexaene-11,14,17-trione]
